In ChEMBL document CHEMBL5465560, “Selectivity Literature for EUbOPEN Chemogenomic Library” (2024):

How the values were obtained:
[1] = target: T1, RNA 5'-monophosphate methyltransferase (Homo sapiens) (UniProt Q7Z5W3); assay: Selectivity interaction (Methyltransferase screen (radiometric assays, panel of 8 PRMTs, 21 protein lysine methyltransferases, 3 DNA methyltransferases, and one RNA methyltransferase)) EUB0000272b BCDIN3D
T1 sequence (whole entry): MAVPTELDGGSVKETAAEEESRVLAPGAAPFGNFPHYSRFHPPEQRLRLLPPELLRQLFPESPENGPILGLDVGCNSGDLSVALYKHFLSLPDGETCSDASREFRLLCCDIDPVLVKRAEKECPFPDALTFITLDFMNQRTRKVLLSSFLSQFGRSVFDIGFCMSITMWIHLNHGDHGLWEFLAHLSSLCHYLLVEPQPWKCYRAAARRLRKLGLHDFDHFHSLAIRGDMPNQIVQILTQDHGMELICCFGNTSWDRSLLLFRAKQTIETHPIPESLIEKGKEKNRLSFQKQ

[2] = target: T2, Serine/threonine-protein kinase D2 (Homo sapiens) (UniProt Q9BZL6); assay: Selectivity interaction (ProQinase) EUB0000171b PRKD2
T2 sequence (whole entry): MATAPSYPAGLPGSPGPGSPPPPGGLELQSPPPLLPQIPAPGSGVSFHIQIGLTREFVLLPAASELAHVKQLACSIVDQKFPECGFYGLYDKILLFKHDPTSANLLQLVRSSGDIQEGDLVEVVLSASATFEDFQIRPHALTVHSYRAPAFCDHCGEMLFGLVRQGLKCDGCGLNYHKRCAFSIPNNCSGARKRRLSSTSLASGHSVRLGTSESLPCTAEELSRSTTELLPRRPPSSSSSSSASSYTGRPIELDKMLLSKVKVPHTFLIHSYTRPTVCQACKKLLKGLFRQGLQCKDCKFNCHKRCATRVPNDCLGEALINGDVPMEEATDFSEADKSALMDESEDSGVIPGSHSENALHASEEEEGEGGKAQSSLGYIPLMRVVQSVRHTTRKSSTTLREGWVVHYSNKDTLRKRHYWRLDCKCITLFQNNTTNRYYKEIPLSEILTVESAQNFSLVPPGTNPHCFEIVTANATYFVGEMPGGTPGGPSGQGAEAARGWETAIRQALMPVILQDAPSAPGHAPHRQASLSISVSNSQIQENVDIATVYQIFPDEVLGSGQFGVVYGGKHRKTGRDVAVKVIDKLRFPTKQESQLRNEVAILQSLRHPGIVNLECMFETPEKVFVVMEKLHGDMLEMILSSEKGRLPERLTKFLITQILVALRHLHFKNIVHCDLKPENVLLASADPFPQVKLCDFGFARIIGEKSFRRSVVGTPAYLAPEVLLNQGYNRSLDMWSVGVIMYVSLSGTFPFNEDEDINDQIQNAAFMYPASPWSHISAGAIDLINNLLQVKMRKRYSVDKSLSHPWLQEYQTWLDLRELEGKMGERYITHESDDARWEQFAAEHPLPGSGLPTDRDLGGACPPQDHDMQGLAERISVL

[3] = target: Ribosomal protein S6 kinase alpha-5 (Homo sapiens) (UniProt O75582); assay: Selectivity interaction (Kinase panel (KiNativ target engagement assay in Jurkat cells)) EUB0001635a RPS6KA5; type: cell-based; conditions: Selectivity number of off-targets 0.0, Selectivity number of targets 233.0, Source Knowledge https://www.sciencedirect.com/science/article/pii/S2451945619300674?via%3Dihub, at 1 µM
Sequence of Ribosomal protein S6 kinase alpha-5 (Homo sapiens) (O75582 whole entry, looked up): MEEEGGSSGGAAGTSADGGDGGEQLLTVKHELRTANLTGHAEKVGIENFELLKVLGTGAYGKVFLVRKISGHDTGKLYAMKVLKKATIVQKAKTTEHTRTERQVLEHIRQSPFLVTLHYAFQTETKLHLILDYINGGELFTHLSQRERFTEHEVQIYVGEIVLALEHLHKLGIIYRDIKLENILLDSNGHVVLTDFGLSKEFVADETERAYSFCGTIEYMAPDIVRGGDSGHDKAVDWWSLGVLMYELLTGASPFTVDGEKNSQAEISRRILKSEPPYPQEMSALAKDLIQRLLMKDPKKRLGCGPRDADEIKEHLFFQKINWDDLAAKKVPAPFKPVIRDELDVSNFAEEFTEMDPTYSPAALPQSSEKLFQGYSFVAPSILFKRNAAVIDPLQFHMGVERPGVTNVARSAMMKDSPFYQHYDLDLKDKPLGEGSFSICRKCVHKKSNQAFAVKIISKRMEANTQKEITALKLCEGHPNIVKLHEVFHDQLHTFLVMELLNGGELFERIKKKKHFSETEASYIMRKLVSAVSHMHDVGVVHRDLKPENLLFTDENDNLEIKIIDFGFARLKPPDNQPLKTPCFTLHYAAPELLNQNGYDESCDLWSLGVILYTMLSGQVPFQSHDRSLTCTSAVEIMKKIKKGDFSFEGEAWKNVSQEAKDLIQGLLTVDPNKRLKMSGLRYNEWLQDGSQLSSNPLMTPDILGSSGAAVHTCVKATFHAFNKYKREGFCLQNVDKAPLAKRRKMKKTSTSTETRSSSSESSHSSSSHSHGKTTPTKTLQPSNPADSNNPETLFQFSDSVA

[4] = target: T3, Dual specificity mitogen-activated protein kinase kinase 3 (Homo sapiens) (UniProt P46734); assay: Selectivity interaction (ActivX KiNativ screen (kinase selectivity in THP-1 cell lysates)) EUB0000639a MAP2K3; type: subcellular; conditions: lysate, at 0.2 µM
T3 sequence (whole entry): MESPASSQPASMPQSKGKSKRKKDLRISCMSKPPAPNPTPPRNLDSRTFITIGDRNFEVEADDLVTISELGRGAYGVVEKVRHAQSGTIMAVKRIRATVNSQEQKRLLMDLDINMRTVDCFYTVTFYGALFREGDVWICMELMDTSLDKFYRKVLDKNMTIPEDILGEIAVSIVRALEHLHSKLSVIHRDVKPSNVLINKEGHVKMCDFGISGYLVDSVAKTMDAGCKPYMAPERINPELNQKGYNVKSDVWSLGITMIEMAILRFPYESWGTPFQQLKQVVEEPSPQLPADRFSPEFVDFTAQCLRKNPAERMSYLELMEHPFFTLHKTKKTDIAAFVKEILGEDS

SRSF protein kinase 1 = SRSF protein kinase 1 (Homo sapiens, UniProt Q96SB4); assay: Selectivity interaction (ActivX KiNativ screen (kinase selectivity in THP-1 cell lysates)) EUB0000639a SRPK1; type: subcellular; conditions: lysate, at 0.01 µM
Sequence of SRSF protein kinase 1 (Q96SB4 whole entry): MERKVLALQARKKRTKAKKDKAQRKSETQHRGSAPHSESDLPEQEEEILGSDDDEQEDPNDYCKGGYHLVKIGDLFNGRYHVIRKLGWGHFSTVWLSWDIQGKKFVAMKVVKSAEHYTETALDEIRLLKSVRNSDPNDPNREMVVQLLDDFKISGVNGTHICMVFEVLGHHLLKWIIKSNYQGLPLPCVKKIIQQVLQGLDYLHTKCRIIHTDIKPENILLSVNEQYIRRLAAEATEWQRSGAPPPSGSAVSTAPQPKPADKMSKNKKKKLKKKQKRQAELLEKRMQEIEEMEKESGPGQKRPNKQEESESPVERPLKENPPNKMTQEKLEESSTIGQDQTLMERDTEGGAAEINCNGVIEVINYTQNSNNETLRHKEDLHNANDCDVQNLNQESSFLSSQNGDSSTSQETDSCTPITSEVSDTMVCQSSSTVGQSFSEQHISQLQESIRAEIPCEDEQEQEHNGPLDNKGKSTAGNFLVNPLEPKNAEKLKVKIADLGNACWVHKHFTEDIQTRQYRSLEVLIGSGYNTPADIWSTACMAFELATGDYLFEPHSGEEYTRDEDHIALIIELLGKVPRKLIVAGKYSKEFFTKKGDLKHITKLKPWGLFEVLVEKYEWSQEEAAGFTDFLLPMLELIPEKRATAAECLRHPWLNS

[5] = target: T4, Serine/threonine-protein kinase PLK4 (Homo sapiens) (UniProt O00444); assay: Selectivity interaction (KinomeScan (DiscoverX)) EUB0000607a PLK4; conditions: at 10 µM
T4 sequence (whole entry): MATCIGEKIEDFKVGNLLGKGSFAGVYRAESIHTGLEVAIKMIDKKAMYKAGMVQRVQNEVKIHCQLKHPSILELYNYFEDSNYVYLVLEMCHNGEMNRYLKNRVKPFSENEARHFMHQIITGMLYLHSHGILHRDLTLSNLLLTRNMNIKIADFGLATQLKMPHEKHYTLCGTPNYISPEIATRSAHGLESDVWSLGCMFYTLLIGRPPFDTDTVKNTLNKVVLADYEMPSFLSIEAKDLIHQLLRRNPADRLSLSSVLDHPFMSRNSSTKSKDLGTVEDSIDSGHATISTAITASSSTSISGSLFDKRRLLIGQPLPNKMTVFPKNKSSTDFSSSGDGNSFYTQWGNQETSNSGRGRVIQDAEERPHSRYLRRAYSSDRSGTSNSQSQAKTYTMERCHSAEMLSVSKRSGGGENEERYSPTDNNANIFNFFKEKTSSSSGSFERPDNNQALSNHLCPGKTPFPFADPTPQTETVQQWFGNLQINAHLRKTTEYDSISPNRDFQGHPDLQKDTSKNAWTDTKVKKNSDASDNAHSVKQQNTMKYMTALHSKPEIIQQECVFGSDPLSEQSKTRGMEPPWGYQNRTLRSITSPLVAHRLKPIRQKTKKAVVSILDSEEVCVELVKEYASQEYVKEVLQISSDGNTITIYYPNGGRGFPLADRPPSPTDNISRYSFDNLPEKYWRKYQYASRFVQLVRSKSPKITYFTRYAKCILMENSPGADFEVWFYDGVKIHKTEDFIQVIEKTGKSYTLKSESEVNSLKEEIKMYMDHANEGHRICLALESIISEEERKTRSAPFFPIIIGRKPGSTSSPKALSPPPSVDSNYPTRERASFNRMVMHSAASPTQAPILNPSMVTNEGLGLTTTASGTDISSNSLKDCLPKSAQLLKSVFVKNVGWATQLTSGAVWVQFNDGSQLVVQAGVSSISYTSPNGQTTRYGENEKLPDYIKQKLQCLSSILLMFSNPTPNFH

[6] = target: T4, Serine/threonine-protein kinase PLK4 (Homo sapiens); assay: Selectivity interaction (KinomeScan (DiscoverX)) EUB0000045b PLK4

Question: Cc1cc(C)cc([C@H]2c3cc(C)ccc3NC(=O)CN2C(=O)c2ccc(Br)s2)c1 was tested. Which % of activity ([1]; at 1 µM) did it give?
Answer: 96%

Question: What about the % of activity ([1]; at 10 µM) of the same compound?
Answer: 99.3%

Question: For C=CC(=O)Nc1cccc(C(=O)Nc2ccc(Nc3cc(-c4[nH]c(SC)nc4C)ccn3)cc2)c1, which % of control ([2]; at 1 µM) is on record?
Answer: 69%

Question: What about the % of control ([2]; at 5 µM) of the same compound?
Answer: 43%

Question: Which % of engagement [3] does the source give for C=CC(=O)Nc1ccc(C(=O)Nc2[nH]nc3c2CN(C(=O)N[C@H](CN(C)C)c2ccccc2)C3(C)C)cc1 here?
Answer: 5.7%

Question: Which % of inhibition [4] does the source give for CC[C@@H]1[C@H](F)C(=O)N[C@@H]1COc1nccc2cc(C(N)=O)c(OC)cc12 [ZIMLOVISERTIB] here?
Answer: -70.7%

Question: And the % of inhibition (SRSF protein kinase 1)?
Answer: -7.7%

Question: For CNC(=O)Nc1ccc(-c2nc(N3CC4CCC(C3)O4)c3cnn(C4CCC5(CC4)OCCO5)c3n2)cc1, which % of control [5] is on record?
Answer: 75%

Question: How did the % of control ([6]; at 1 µM) turn out when C=CC(=O)Nc1cc(-n2c(=O)ccc3cnc4ccc(-c5ccc(NS(C)(=O)=O)cc5)cc4c32)ccc1C was run?
Answer: 100%

Question: And the % of control ([6]; at 10 µM)?
Answer: 73%
